The source of these data is US9139524B2, “Fluorinated bridged spiro[2.4]heptane derivatives as ALX receptor agonists” (Actelion Pharmaceuticals Ltd., priority 2012, dated 2015).

For one series, the target named is T1, human ALX receptor (Homo sapiens, UniProt P25090).
T1 construct: expressed in transfected cells; host or cells: HEK293 (HEK293-hALXR-Gα16)
T1 sequence (P25090 1-351): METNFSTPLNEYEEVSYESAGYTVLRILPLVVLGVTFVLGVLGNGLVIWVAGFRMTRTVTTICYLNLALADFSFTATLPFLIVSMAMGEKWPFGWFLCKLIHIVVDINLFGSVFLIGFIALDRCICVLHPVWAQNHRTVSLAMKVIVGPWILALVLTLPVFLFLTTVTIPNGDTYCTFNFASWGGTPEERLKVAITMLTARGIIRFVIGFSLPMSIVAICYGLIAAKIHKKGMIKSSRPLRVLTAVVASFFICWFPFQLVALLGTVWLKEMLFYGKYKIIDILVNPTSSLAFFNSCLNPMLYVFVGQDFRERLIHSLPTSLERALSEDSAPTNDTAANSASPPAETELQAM
In words: Intracellular calcium measurements (FLIPR), ALX receptor agonistic activity. Conditions: HEK293-hALXR-Gα16 cells; values normalized to WKYMVm 10 nM; read-out: EC50 (agonistic activity with respect to the ALX receptor). It is filed as cell-based. The method, then: The ALX receptor agonistic activities of the compounds of formula (I) are determined in accordance with the following experimental method.
Cells expressing recombinant human ALX receptor and the G-protein Gα16 (HEK293-hALXR-Gα16) were grown to 80% confluency in Growing Medium (GM). Cells were detached from culture dishes with a cell dissociation buffer (Invitrogen, 13151-014), and collected by centrifugation at 1′000 rpm at rt for 5 min in Assay Buffer (AB) (equal parts of Hank's BSS (Gibco, 14065-049) and DMEM without Phenol Red (Gibco, 11880-028)). After 60 min incubation at 37° C. under 5% CO2 in AB supplemented with 1 μM Fluo-4 (AM) (Invitrogen, F14202) and 20 mM HEPES (Gibco, 15630-056), the cells were washed and resuspended in AB. They were then seeded onto 384-well FLIPR assay plates (Greiner, 781091) at 50′000 cells in 70 μl per well and sedimented by centrifugation at 1′000 rpm for 1 min. Stock solutions of test compounds were made up at a concentration of 10 mM in DMSO, and serially diluted in AB to concentrations required for activation dose response curves. WKYMVm (Phoenix Peptides) was used as a reference agonist. A FLIPR Tetra instrument (Molecular Devices) was operated according to the manufacturer's standard instructions, adding 4 μl of test compound dissolved at 10 mM in DMSO and diluted prior to the experiment in assay buffer to obtain the desired final concentration. Changes in fluorescence were monitored before and after the addition of test compounds at lex=488 nm and lem=540 nm. Emission peak values above base level after compounds addition were exported after base line subtraction. Values were normalized to high-level control (WKYMVm compound, 10 nM final concentration) after subtraction of the base line value (AB addition).

The nature of series [1]: Determination of pharmacokinetic parameters in rats after single oral or intravenous administration. The class given is in vivo. Conditions: Wistar, plasma, rat, p.o. 1 mg/kg; for bioavailability: oral, calculated with a reference AUC after iv administration of solutions at 1 mg/kg, read-out: F (bioavailability); for AUC: po, read-out: AUC (area under curve after p.o. administration). The method, then:
The goal of the study was to evaluate the pharmacokinetics of compounds after a single oral administration or after an intravenous route in normal, conscious rats.
• Anaesthesia: Wistar rats were pretreated with 0.03 mg/kg Buprenorphine s.c. (an analgesic-stock solution at 0.03 mg/ml) and 30 minutes later they were anaesthetized with a mixture of 90 mg/kg Ketamine and 10 mg/kg Xylazine i.p. or under Isoflurane inhalation anesthesia. • Rat preparation: The top of the head and the neck were shaved and disinfected with Merfen and Betadine. • Surgery: While under (isoflurane) anaesthesia, an incision was made above 1.5 cm at the top of the head (between the ears) in order to fix the anchor button. A second incision was made above 1.5-2 cm on the neck (near the right clavicle). A catheter (ID/DI: 0.508 mm, Ulrich Swiss) was tunnelled with a trocar under the skin and an access port was fixed with 4-0 silk. The catheter was then filled with a heparinized saline solution (100 Ul/ml), clamped with a hemostat to prevent loss of saline, and the wound was closed with tissue adhesive (3M Vetbond). Next, the jugular vein was isolated and ligated cranially with 4-0 silk, a second ligature, placed caudal to the first ligature, was not tightened. Using iridectomy scissors, a V-shaped hole was cut in the vein, and the catheter was gently pushed into the vessel. All ligatures were then tied around the vessel and the catheters. A NaCl-heparin 100 Ul flush was made to test the blood flow. The wound was then closed with tissue adhesive and a suture. Flush again. • Post operative care: After the operation each animal was housed separately in a small box with food (directly on the floor of the box) and water ad libitum and access to solid drink. One to two days were allowed for recovery from surgery prior to the experiment. The day following the operation, animals were flushed with NaCl-heparin 100 Ul/mL and blood collection tubes were prepared with 10 μl EDTA added to each tube. • Experiment: Tested compounds were given at 1 mg/kg orally and intravenously. The oral formulation was as a solution in Gelatine (98% of a 7.5% Gelatine solution in Water and 2% DMSO) and the intravenous formulation was a solution in water with pH adjustment or in cyclodextrine (5% DMSO, 95% HPBCD30% (w/v)). After application of the test-compound (p.o. or i.v.), blood samples ([…]) were taken at different times. The samples were immediately put in ice before being centrifuged (4° C., 8 min, 16000 g). The plasma was then aspirated and placed into a 96 well plate. The plate was kept at −20° C. until analysis could be performed. • Plasma concentration of the compound was determined using a LC-MS/MS method.

Broadly, the EC50 is the concentration giving half of the maximal effect. In general, bioavailability refers to the share of a dose that reaches the circulation, judged against a reference dose that is usually intravenous.

For the molecule `O=C(N[C@H]1CCNC[C@H]1F)[C@H]1[C@H](C(=O)NCc2ccc(Br)cc2F)[C@@H]2CC[C@H]1C21CC1` (mixture of isomers) [Example 4, (1S,2R,3R,4R)—N^2-(4-Bromo-2-fluorobenzyl)-N^3-(cis-3-fluoropiperidin-4-yl)spiro[bicyclo[2.2.1]heptane-7,1′-cyclopropane]-2,3-dicarboxamide], the EC50 at human ALX receptor turned out to be 12.7 nM.

As to `O=C(N[C@@H]1CNC[C@@H]1F)[C@H]1[C@H](C(=O)NCc2ccc(Br)cc2F)[C@@H]2CC[C@H]1C21CC1` (mixture of isomers) [Example 5, (1S,2R,3R,4R)—N^2-(4-Bromo-2-fluorobenzyl)-N^3-(cis-4-fluoropyrrolidin-3-yl)spiro[bicyclo[2.2.1]heptane-7,1′-cyclopropane]-2,3-dicarboxamide], on human ALX receptor, the EC50 was 300 nM.

As for `O=C(N[C@@H]1CNC[C@H]1F)[C@H]1[C@H](C(=O)NCc2ccc(Br)cc2F)[C@@H]2CC[C@H]1C21CC1` (mixture of isomers) [Example 6, (1S,2R,3R,4R)—N^2-(4-Bromo-2-fluorobenzyl)-N^3-(trans-4-fluoropyrrolidin-3-yl)spiro[bicyclo[2.2.1]heptane-7,1′-cyclopropane]-2,3-dicarboxamide], the EC50 on human ALX receptor was 4.5 nM.

On to `O=C(N[C@@H]1CCNC[C@H]1F)[C@H]1[C@H](C(=O)NCc2ccc(Br)cc2F)[C@@H]2CC[C@H]1C21CC1` (single isomer, unassigned; diastereoisomer 1) [Example 2], for which the EC50 at human ALX receptor was 1.9 nM.

For `O=C(N[C@@H]1CCNC[C@H]1F)[C@H]1[C@H](C(=O)NCc2ccc(Br)cc2F)[C@@H]2CC[C@H]1C21CC1` (single isomer, unassigned; diastereoisomer 2) [Example 3], the EC50 on human ALX receptor was 2 nM. For the same molecule, in series [1], the bioavailability is 12% and the AUC was 49.9 ng·h/mL.

As for `O=C(NC1CCNCC1(F)F)[C@H]1[C@H](C(=O)NCc2ccc(Br)cc2F)[C@@H]2CC[C@H]1C21CC1` (stereo partly drawn) [Example 1, (1S,2R,3R,4R)—N^2-(4-Bromo-2-fluorobenzyl)-N^3-(3,3-difluoropiperidin-4-yl)spiro[bicyclo[2.2.1]heptane-7,1′-cyclopropane]-2,3-dicarboxamide], the EC50 on human ALX receptor amounted to 41 nM.

As for `O=C(NC1CCNCC1)[C@H]1[C@H](C(=O)NCc2ccc(Br)cc2F)[C@@H]2CC[C@H]1C21CC1` [Reference Example 2, (1S,2R,3R,4R)—N^2-(4-Bromo-2-fluorobenzyl)-N^3-(piperidin-4-yl)spiro[bicyclo[2.2.1]heptane-7,1′-cyclopropane]-2,3-dicarboxamide, reference compound], in series [1], the bioavailability was 0.3% and the AUC worked out at 6.34 ng·h/mL.
